Assays:
Format in all cases: cell-based, human
MV4-11 cells = test: Coculture of GILT and exogenous MIF on MV4-11 (sequential or simultaneous); details: MV4-11, sequential coculture 5 days, 80 nM GILT only
Description: To investigate whether MIF/CXCLs-CXCR2 pathways could be activated by TKI-treatment in viable blasts to support their survival and continuous proliferation, a serial coculture was conducted to examine whether the supplementation of exogenous MIF at early (simultaneous) or late stage (sequential) of TKI treatment could rescue the GIL-treated MV4-11 in vitro. CD44, a multifunctional cell surface adhesion receptor, was identified as a key regulator of quiescent AML leukemic stem cells (LSCs) which are highly microenvironment dependent. […] In the simultaneous coculture, another group of CD44High^+ cells was also found which included both Ki67^+ and Ki67^− subsets (FIG. 8F). This group of CD44High^+ cells could be visualized in the flow cytometry histogram (FIG. 8G). […] CD44high^+ stem-like cells have been previously found to be highly tumorigenic, treatment-resistant and responsible for metastatic progression in breast cancer.

MV4-11 = test: GILT-based combinatory treatments for MV4-11 in vitro (synergy, relapse, FACS, imaging)
Source text: FLT3, the most frequently mutated gene in AML patients, is often associated with poorer overall survival with an increased risk of relapse. However, the anti-leukemic effects of the latest FLT3 inhibitors as monotherapy or in combination with standard treatments are constrained by a short duration of response and a high rate of relapse. Accordingly, whether targeting the compensation pathways along with administration of FLT3 inhibitors, e.g., GILT, prevents relapse. A list of the in vitro trials of GILT in combination with inhibitors (commercially available) targeting new pathways on MV4-11 is provided in Table 1. […]
(§1) Flow Cytometry (FACS). […] About 1×10^4˜10^6 cells in 100 μl FACS buffer (PBS containing 1% FBS and 0.05% sodium azide) were stained with various fluorescence-conjugated antibodies specific for the desired cell surface proteins at 4° C. for 30 min. The surface-stained cells were then fixed and permeabilized using the appropriate reagents (e.g. the BD Pharmingen Cytofix/Cytoperm buffer) and stained with different fluorescence-conjugated antibodies specific for the desired intracellular proteins at 4° C. for 2 hours in the permeabilizing buffer (e.g. the BD Perm/Wash buffer). […] Finally, the cells were washed twice in the permeabilizing buffer and twice in the FACS buffer before being analyzed on the BD FACSAria II. […]

MOLM-14 cells = test: FACS of TKI-treated MOLM-14 cells in vitro (viable blasts, pBAD); details: 3 days after one dose of 80 nM TKI; vs non-treatment controls
Description: The AML cells were analyzed at different time points after exposure to TKI (3 days, 10 days, 20 days, and 28 days). […] After 3 days, FACS of the surface markers and intracellular proteins, including CD14, CD33, CD44, and Ki67, were performed. FIGS. 1A-1E depicts therapeutic effect of different TKIs on MV4-11 and MOLM-14 cells in vitro (N=6). […] The circles indicate the group of viable blasts located in a FACS plot and green arrows indicate the dying tendency of blasts which will become positive for viability dye during the next few days. FIGS. 1C and 1D are graphical representations of the cumulative FACS percentage data of viable MV4-11 and MOLM-14 cells. *P<0.05. […]
as §1

Row | SMILES | percentage of viable quiescent CD44+ cell population (MV4-11 cells) [%] | population of viable blasts (FACS) (MV4-11; MV4-11, 3 days after combination treatment) [%] | viable Ki67+CD33+CD44+ cells (cell number count) (MV4-11; MV4-11, 7 days after combination treatment) [cells] | viable MOLM-14 blasts (FACS) (MOLM-14 cells)
1 | CCc1nc(C(N)=O)c(Nc2ccc(N3CCC(N4CCN(C)CC4)CC3)c(OC)c2)nc1NC1CCOCC1 [GILT, Gilteritinib] | 17.7 | 26.9 | 180 | 
2 | CC(C)(C)c1cc(NC(=O)Nc2ccc(-c3cn4c(n3)sc3cc(OCCN5CCOCC5)ccc34)cc2)no1 [QUIZ, Quizartinib] |  |  |  | more effective
